Data on four compounds can be found in patent publication US9943536B2, “Reactivation of HIV-1 gene expression to treat persistent HIV infection” (UNIVERSITÉ LIBRE DE BRUXELLES, priority 2011, dated 2018).

Values joined by “and” are separate entries in the source; they are usually repeats but may differ in a detail not shown here. Equal entries are not always repeated.

Assay type in all cases: cell-based
The subject of experiment [1] is HIV-1 in HLA DR− CD25− CD69− CD4+ T cells from HIV-1-infected cART-treated patients. The experiment can be described thus: HIV-1 recovery in resting memory (HLA DR− CD25− CD69−) CD4+ T cells from cART-treated patients. The note with it: for concentration of viral RNA in culture supernatants: HLA DR− CD25− CD69− CD4+ T cells, six days after treatment. On the procedure: Further to Table 3: Cultures of patient cells were mock-treated or treated with indicated compounds. Six days after treatment, the concentration of viral RNA in culture supernatants was determined (in copies/ml; l means below the threshold and ‘/’ indicates an untested condition). Total HIV-1 DNA is expressed as HIV-1 DNA copies/10^6 cells or as log HIV-1 DNA copies/10^6 cells.
FIG. 3. […] Cultures of resting memory CD4^+ T cells were mock-treated or treated as indicated. Six days after treatment, the concentration of viral RNA in culture supernatants was measured (in copies/ml). […] The reactivated patient cultures were classified in relevant categories where HIV-1 recovery after the combined treatment presented a higher viral production than after the individual treatment. […] The reactivated patient cultures were subdivided in two relevant categories: (b1) cultures in which HIV-1 recovery after the combined treatment was higher than after the individual treatments, (b2) and cultures in which a synergistic reactivation of viral RNA production was observed after the combined treatments.
Table 4. […] Cultures of resting memory CD4^+ T cells were mock-treated or treated with BIX-01294. Six days after treatment, the concentration of viral RNA in culture supernatants was determined in copies/ml (l indicates below the threshold).
FIG. 4. […] Cultures of resting memory CD4^+ T cells were mock-treated or treated with BIX-01294 alone, with SAHA alone or with the combinationSAHA+BIX-01294. Six days after treatment, the concentration of viral RNA in culture supernatants was determined in copies/ml (I indicates below the threshold).
Cultures of 2.5×10^5 HLA DR^− CD 25 CD69^− CD4^+ T cells were mock-treated or treated with BIX-01294. Six days after treatment, the concentration of viral RNA in culture supernatants was determined (Table 4).

For experiment [2], the system named is HIV-1 in HLA DR− CD4+ T cells from HIV-1-infected cART-treated patients. Nature of the experiment: HIV-1 recovery in limiting-dilution cultures of HLA DR− CD4+ T cells from cART-treated patients. To be noted: for concentration of viral RNA in culture supernatants: limiting dilution, one line per patient. On the procedure: (§1) (a) Cultures of CD8^+-depleted PBMCs were mock-treated or treated with chaetocin (90 nmol/l). Six days after treatment, the concentration of viral RNA in culture supernatants was determined. Total HIV-1 DNA is expressed as HIV-1 DNA copies/10^6 cells or as log HIV-1 DNA copies/10^6 cells (‘/’ indicates not-tested condition). (b) Limiting-dilution cultures of HLA DR^− CD4^+ T cells were mock-treated or treated with chaetocin (45 or 90 nmol/l). The concentration of viral RNA in culture supernatants was determined. The last positive dilution culture indicates the presence of at least one cell carrying replication-competent and chaetocin-responsive virus.
(§2) Cultures comprising 6.10^6 CD8^+-depleted PBMCs were mock-treated or treated with chaetocin. Six days after treatment, the concentration of viral RNA in culture supernatants was determined by the Amplicor method (Roche Diagnostics). The results are depicted in Table 1 and 2A. The percentage of reactivation was calculated on all patients reactivated. Nine out of the eighteen tested PBMC cultures reactivated HIV-1 expression in response to chaetocin treatment, while none of them did when mock-treated. Subsequently, limiting-dilution cultures of HLA DR^− CD4^+ T cells were performed and these cultures were mock-treated or treated with chaetocin. The last positive dilution culture indicates the presence of at least one cell carrying replication-competent HIV-1 virus. The concentration of viral RNA in culture supernatants was determined by the Amplicor method (Roche Diagnostics). Values are expressed in HIV-1 RNA copies/ml.

The test system of experiment [3] is HIV-1 in CD8+-depleted PBMCs from HIV-1-infected cART-treated patients. The experiment can be described thus: HIV-1 recovery in ex-vivo cultures of CD8+-depleted PBMCs from cART-treated patients. To be noted: for concentration of viral RNA in culture supernatants: six days after treatment. On the procedure: Table 1. […] Cultures of CD8^+-depleted PBMCs were mock-treated or treated with chaetocin (30, 60 or 90 nmol/l) or with the positive control. Six days after treatment, the concentration of viral RNA in culture supernatants was determined (in copies/ml; ‘l’ indicates below the threshold).
as §1, §2

[4] abbreviates: one line per patient culture H19-H34 (Table 3), l = below the threshold.

Consider `COc1cc2nc(N3CCCN(C)CC3)nc(NC3CCN(Cc4ccccc4)CC3)c2cc1OC` [BIX-01294], for which the “% of reactivation” value in experiment [1] (10 patients (Table 4)) is reported as 80%. Also, the “concentration of viral RNA in culture supernatants” value (shortened to “concentration of viral RNA”) in experiment [1] (one line per patient culture (Table 4), I = below the threshold) was 412 copies/ml and 1 780 copies/ml and 1 360 copies/ml and 665 copies/ml and 1624 copies/ml and 1385 copies/ml and 250 copies/ml and 4292 copies/ml; in experiment [1] (setting [4]), 665 copies/ml and 1624 copies/ml and 1385 copies/ml and 250 copies/ml and 4292 copies/ml and 412 copies/ml and 1780 copies/ml and 1360 copies/ml. Moreover, in experiment [1] (cultures from HIV-1+ cART-treated patients (Table 4)), the “reactivated HIV-1 expression, share of resting CD4+ T-cell cultures” value came to 80%. Also, the Reactivated patients in experiment [1] (of 10 patients (Table 4)) stood at 8.

On to `O=C(CCCCCCC(=O)Nc1ccccc1)NO` [SAHA, suberoylanilide hydroxamic acid], for which the “concentration of viral RNA” value in experiment [1] (setting [4]) was 624 copies/ml and 520 copies/ml and 252 copies/ml and 2248 copies/ml and 908 copies/ml and 952 copies/ml and 336 copies/ml and 540 copies/ml and 1480 copies/ml and 420 copies/ml and 416 copies/ml and 412 copies/ml.

For `CN1C(=O)[C@@]23C[C@]4([C@]56C[C@@]78SS[C@@](CO)(C(=O)N7[C@H]5Nc5ccccc56)N(C)C8=O)c5ccccc5N[C@@H]4N2C(=O)[C@]1(CO)SS3` [chaetocin], the “concentration of viral RNA” value in experiment [1] (setting [4]) is 832 copies/ml and 180 copies/ml and 2780 copies/ml and 1244 copies/ml and 1616 copies/ml and 2000 copies/ml and 680 copies/ml and 4944 copies/ml and 300 copies/ml and 328 copies/ml and 2456 copies/ml and 1000 copies/ml; in experiment [2] (chaetocin 45 nM, 1.5 × 10^6 cells), 288 copies/ml and 831 copies/ml; in experiment [2] (chaetocin 45 nM, 5 × 10^5 cells), 179 copies/ml and 245 copies/ml and 89 copies/ml and 97 copies/ml and 769 copies/ml; in experiment [2] (chaetocin 45 nM, 10^5 cells), 83 copies/ml and 238 copies/ml; in experiment [2] (chaetocin 45 nM, 10^6 cells), 284 copies/ml and 94 copies/ml and 292 copies/ml and 702 copies/ml; in experiment [2] (chaetocin 90 nM, 1.5 × 10^6 cells), 377 copies/ml and 1050 copies/ml. The “concentration of viral RNA” value in experiment [2] (chaetocin 90 nM, 5 × 10^4 cells) was 76 copies/ml; in experiment [2] (chaetocin 90 nM, 5 × 10^5 cells) it was 147 copies/ml and 118 copies/ml and 68 copies/ml and 52 copies/ml and 1043 copies/ml; in experiment [2] (chaetocin 90 nM, 10^5 cells), 51 copies/ml and 50 copies/ml and 47 copies/ml and 359 copies/ml; in experiment [2] (chaetocin 90 nM, 10^6 cells), 178 copies/ml and 131 copies/ml and 791 copies/ml; in experiment [3] (CD8+-depleted PBMCs, one line per patient culture H1-H18 (Table 3), l = below the threshold) it was 1825 copies/ml and 354 copies/ml and 2057 copies/ml and 2371 copies/ml and 1566 copies/ml and 797 copies/ml and 477 copies/ml and 2388 copies/ml and 467 copies/ml; in experiment [3] (chaetocin 30 nM, one line per patient culture, I = below the threshold) it was 1139 copies/ml. Also, the “concentration of viral RNA” value in experiment [3] (chaetocin 60 nM, one line per patient culture, I = below the threshold) was 222 copies/ml and 452 copies/ml and 1924 copies/ml; in experiment [3] (chaetocin 90 nM, one line per patient culture, I = below the threshold) it was 2371 copies/ml and 1825 copies/ml and 354 copies/ml and 2057 copies/ml; in experiment [3] (chaetocin 90 nmol/l, one line per patient culture H1-H18, I = below the threshold), 2371 copies/ml and 1566 copies/ml and 797 copies/ml and 477 copies/ml and 2388 copies/ml and 467 copies/ml and 1825 copies/ml and 354 copies/ml and 2057 copies/ml. The “HIV-1 recovery, share of resting CD4+ T-cell cultures” value in experiment [2] (cultures from HIV-1+ cART-treated patients (Table 2b)) was 86%. The “% of reactivation” value in experiment [3] (18 patients H1-H18, chaetocin 90 nmol/l or positive control) is reported as 50%. The Reactivated patients in experiment [3] (chaetocin 30 nM, of 6 patients H1-H6) is 1; in experiment [3] (chaetocin 60 nM, of 6 patients H1-H6), 3; in experiment [3] (chaetocin 90 nM, of 6 patients H1-H6) it was 4; in experiment [3] (of 18 patients H1-H18, chaetocin 90 nmol/l or positive control), 9. For the same compound, in experiment [3] (cultures from HIV-1+ cART-treated patients (Table 2a)), the “HIV-1 recovery, share of CD8+-depleted PBMCs cultures” value worked out at 50%.

For `CC(=O)O[C@@]12C[C@@H](C)[C@@]3(O)[C@@H](C=C(CO)C[C@]4(O)C(=O)C(C)=C[C@@H]34)[C@@H]1C2(C)C` [prostratin, 12-deoxyphorbol 13-acetate], in experiment [1] (setting [4]), the “concentration of viral RNA” value was 612 copies/ml and 1380 copies/ml and 1064 copies/ml and 2508 copies/ml and 2540 copies/ml and 3532 copies/ml and 704 copies/ml and 420 copies/ml.
